Measured values as given in US11331299B2, “Medicinal use of serrulatane diterpenes” (The University of Sydney, priority 2016, dated 2022).

Columns and labels:
Assay in all cases: biochemical
Assay type in all cases: binding
[1] = biological target: receptors (Bioprint panel) (Homo sapiens, UniProt Q9UBS5); conditions: GABA GABAB(1b) (h) (antagonist radioligand); 10 μM; read-out: % Inhibition of Control Specific Binding
[2] = biological target: receptors (Bioprint panel) (Homo sapiens, UniProt P31391); conditions: SOMASTATIN sst4 (h) (agonist radioligand); 10 μM; read-out: % Inhibition of Control Specific Binding
[3] = biological target: receptors (Bioprint panel) (Homo sapiens, UniProt P43681); conditions: NICOTINIC […] N neuronal alpha 4beta 2 (h) (agonist radioligand); 10 μM; read-out: % Inhibition of Control Specific Binding
[4] = biological target: receptors (Bioprint panel) (Homo sapiens, UniProt P41595); conditions: read-out: % Inhibition of Control Specific Binding
[5] = biological target: receptors (Bioprint panel) (Homo sapiens, UniProt P43088); conditions: […] (h) (agonist radioligand); 10 μM; read-out: % Inhibition of Control Specific Binding
Chain of receptors (Bioprint panel) (Homo sapiens, UniProt P43088) (P43088 whole entry): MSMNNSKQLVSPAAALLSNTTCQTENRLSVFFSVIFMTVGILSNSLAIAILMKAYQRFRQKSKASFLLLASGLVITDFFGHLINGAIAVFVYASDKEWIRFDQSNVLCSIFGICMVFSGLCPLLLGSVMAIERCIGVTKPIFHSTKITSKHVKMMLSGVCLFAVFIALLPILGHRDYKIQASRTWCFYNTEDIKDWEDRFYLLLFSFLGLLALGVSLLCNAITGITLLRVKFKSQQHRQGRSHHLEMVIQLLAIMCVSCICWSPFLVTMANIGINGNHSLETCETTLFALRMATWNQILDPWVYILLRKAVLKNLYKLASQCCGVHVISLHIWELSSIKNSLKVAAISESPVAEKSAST

[6] = biological target: receptors (Bioprint panel) (Homo sapiens, UniProt P25021); conditions: HISTAMINE H2 (h) (antagonist radioligand); 10 μM; read-out: % Inhibition of Control Specific Binding
[7] = biological target: receptors (Bioprint panel) (Homo sapiens, UniProt Q9Y271); conditions: read-out: % Inhibition of Control Specific Binding
[8] = biological target: receptors (Bioprint panel) (Homo sapiens, UniProt P25103); conditions: NEUROKININ NK1 (h) (agonist radioligand); 10 μM; read-out: % Inhibition of Control Specific Binding
Chain of receptors (Bioprint panel) (Homo sapiens, UniProt P25103) (P25103 whole entry): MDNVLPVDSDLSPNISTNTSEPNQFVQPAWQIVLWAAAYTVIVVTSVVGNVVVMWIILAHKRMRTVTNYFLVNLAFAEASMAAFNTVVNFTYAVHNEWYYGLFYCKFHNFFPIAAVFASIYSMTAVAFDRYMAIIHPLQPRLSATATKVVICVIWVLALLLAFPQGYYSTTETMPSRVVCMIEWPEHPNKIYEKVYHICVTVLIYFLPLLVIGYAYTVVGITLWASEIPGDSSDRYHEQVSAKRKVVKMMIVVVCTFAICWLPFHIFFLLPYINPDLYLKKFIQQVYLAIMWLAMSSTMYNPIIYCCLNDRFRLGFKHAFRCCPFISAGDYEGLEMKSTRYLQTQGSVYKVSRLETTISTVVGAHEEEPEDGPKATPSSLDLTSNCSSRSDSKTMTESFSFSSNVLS

[9] = biological target: receptors (Bioprint panel) (Homo sapiens, UniProt P14867); conditions: GABAA1 (h) (alpha 1, beta 2, gamma 2) (agonist radioligand); 10 μM; read-out: % Inhibition of Control Specific Binding
Chain of receptors (Bioprint panel) (Homo sapiens, UniProt P14867) (P14867 28-456): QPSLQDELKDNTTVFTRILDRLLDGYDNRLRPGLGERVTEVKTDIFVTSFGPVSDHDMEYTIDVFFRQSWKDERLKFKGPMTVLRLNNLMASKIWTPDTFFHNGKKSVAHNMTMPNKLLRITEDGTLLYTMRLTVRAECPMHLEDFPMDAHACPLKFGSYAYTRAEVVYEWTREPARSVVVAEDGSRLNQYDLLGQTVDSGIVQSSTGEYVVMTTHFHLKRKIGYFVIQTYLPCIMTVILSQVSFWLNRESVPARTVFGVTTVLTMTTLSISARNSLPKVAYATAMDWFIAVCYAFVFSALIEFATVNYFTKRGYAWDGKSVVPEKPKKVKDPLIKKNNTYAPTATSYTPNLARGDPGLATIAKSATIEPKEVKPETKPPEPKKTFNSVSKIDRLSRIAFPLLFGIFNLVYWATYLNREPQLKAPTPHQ

[10] = biological target: receptors (Bioprint panel) (Homo sapiens, UniProt P35372); conditions: OPIOD & OPIOID-LIKE mu (MOP) (h) (agonist radioligand); 10 μM; read-out: % Inhibition of Control Specific Binding
Chain of receptors (Bioprint panel) (Homo sapiens, UniProt P35372) (P35372 whole entry): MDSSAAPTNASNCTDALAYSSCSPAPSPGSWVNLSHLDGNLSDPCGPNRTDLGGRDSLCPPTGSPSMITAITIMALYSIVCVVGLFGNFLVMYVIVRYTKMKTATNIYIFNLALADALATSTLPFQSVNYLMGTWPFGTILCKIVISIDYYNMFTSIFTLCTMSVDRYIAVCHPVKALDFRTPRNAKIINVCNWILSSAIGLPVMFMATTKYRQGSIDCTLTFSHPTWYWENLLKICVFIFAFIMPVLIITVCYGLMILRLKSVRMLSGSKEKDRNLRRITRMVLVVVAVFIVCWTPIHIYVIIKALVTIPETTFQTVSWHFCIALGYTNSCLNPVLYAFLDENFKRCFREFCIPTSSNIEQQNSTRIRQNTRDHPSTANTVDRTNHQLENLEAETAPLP

[11] = biological target: receptors (Bioprint panel) (Homo sapiens, UniProt P50406); conditions: read-out: % Inhibition of Control Specific Binding
[12] = biological target: receptors (Bioprint panel) (Homo sapiens, UniProt P08172); conditions: […] M2 (h) (antagonist radioligand); 10 μM; read-out: % Inhibition of Control Specific Binding
[13] = biological target: receptors (Bioprint panel) (Homo sapiens, UniProt P41597); conditions: CHEMOKINES CCR2 (h) (agonist radioligand); 10 μM; read-out: % Inhibition of Control Specific Binding
[14] = biological target: receptors (Bioprint panel) (Homo sapiens, UniProt P10275); conditions: 10 μM
Chain of receptors (Bioprint panel) (Homo sapiens, UniProt P10275) (P10275 whole entry T878A, form open): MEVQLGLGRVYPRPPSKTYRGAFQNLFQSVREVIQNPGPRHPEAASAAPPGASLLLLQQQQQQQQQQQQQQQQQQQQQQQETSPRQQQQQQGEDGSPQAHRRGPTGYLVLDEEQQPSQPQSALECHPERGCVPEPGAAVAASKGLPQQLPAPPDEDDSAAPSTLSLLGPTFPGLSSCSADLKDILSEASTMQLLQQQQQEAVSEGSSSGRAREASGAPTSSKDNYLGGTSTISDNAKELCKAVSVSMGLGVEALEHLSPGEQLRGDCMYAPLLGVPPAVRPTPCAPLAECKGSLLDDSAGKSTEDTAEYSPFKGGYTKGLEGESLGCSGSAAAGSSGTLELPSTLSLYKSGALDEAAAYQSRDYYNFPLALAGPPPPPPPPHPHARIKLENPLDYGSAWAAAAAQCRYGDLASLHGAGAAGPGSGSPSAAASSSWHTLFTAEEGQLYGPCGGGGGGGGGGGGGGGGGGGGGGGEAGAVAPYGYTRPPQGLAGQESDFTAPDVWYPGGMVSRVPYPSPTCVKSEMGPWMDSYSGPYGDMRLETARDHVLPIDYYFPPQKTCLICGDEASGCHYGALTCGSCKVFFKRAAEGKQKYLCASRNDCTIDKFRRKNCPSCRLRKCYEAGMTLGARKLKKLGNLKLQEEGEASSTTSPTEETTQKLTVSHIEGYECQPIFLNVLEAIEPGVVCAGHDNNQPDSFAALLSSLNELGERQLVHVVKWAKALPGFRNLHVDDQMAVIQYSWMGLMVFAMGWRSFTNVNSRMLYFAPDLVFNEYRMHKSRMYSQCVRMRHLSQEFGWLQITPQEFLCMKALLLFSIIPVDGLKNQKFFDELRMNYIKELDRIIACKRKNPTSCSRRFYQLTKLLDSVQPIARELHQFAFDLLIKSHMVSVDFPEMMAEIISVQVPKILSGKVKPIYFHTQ

[15] = biological target: receptors (Bioprint panel) (Homo sapiens, UniProt P20309); conditions: […] M3 (h) (antagonist radioligand); 10 μM; read-out: % Inhibition of Control Specific Binding
[16] = biological target: receptors (Bioprint panel) (Homo sapiens, UniProt P21554); conditions: CANNABINOID CB1 (h) (agonist radioligand); 10 μM; read-out: % Inhibition of Control Specific Binding
[17] = biological target: receptors (Bioprint panel) (Homo sapiens, UniProt P02708); conditions: NICOTINIC […] N muscle-type (h) (antagonist radioligand); 10 μM; read-out: % Inhibition of Control Specific Binding
Chain of receptors (Bioprint panel) (Homo sapiens, UniProt P02708) (P02708 whole entry): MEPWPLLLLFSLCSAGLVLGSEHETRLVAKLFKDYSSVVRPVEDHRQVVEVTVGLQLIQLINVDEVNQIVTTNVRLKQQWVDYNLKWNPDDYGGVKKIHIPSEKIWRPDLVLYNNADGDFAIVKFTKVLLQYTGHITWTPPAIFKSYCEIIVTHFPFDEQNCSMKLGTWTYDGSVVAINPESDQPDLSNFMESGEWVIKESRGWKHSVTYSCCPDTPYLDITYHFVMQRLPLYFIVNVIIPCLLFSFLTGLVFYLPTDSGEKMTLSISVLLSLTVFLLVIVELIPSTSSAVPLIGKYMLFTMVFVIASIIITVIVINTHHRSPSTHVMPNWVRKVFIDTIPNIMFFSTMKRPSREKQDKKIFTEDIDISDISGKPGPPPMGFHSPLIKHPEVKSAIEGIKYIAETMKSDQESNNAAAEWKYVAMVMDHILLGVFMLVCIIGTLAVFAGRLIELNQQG

[18] = biological target: receptors (Bioprint panel) (Homo sapiens, UniProt Q9H3N8); conditions: HISTAMINE H4 (h) (agonist radioligand); 10 μM; read-out: % Inhibition of Control Specific Binding
[19] = biological target: receptors (Bioprint panel) (Homo sapiens, UniProt P31645); conditions: 5-HT transporter (h) (antagonist radioligand); 10 μM; read-out: % Inhibition of Control Specific Binding
Chain of receptors (Bioprint panel) (Homo sapiens, UniProt P31645) (P31645 whole entry): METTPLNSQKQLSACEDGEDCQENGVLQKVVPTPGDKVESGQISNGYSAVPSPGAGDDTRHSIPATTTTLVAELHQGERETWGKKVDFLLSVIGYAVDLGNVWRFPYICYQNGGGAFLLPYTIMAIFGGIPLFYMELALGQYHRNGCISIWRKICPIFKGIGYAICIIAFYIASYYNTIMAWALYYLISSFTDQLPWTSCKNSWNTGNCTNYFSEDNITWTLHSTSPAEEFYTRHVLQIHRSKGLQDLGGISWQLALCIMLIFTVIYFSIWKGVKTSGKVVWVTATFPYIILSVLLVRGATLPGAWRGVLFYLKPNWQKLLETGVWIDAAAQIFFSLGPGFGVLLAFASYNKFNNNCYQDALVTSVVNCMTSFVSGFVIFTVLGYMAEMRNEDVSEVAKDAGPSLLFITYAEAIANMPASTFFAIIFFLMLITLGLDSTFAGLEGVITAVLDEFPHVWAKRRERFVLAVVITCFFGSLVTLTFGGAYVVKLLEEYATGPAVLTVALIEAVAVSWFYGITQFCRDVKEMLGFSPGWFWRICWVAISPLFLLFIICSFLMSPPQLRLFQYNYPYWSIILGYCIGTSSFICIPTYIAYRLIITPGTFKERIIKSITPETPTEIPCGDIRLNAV

[20] = biological target: receptors (Bioprint panel) (Homo sapiens, UniProt P25929); conditions: NE[…] Y1 (h) (agonist radioligand); 10 μM; read-out: % Inhibition of Control Specific Binding
[21] = biological target: receptors (Bioprint panel) (Homo sapiens, UniProt Q99705); conditions: MELANIN-CONCENTRATING-HORMONE MCH1 (h) (agonist radioligand); 10 μM; read-out: % Inhibition of Control Specific Binding
Chain of receptors (Bioprint panel) (Homo sapiens, UniProt Q99705) (Q99705 whole entry): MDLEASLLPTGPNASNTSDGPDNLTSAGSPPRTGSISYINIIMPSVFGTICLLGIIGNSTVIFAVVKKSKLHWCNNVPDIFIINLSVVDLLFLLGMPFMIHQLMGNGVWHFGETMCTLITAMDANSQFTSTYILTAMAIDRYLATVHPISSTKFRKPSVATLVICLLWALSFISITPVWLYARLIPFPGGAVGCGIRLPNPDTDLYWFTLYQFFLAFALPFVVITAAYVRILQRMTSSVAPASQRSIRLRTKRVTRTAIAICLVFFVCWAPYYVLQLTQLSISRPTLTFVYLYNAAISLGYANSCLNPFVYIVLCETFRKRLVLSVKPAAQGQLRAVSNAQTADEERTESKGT

[22] = biological target: receptors (Bioprint panel) (Rattus norvegicus, UniProt P28565); conditions: read-out: % Inhibition of Control Specific Binding
[23] = biological target: receptors (Bioprint panel) (Homo sapiens, UniProt P08588); conditions: […] beta 1 (h) (agonist radioligand); 10 μM; read-out: % Inhibition of Control Specific Binding
Chain of receptors (Bioprint panel) (Homo sapiens, UniProt P08588) (P08588 whole entry): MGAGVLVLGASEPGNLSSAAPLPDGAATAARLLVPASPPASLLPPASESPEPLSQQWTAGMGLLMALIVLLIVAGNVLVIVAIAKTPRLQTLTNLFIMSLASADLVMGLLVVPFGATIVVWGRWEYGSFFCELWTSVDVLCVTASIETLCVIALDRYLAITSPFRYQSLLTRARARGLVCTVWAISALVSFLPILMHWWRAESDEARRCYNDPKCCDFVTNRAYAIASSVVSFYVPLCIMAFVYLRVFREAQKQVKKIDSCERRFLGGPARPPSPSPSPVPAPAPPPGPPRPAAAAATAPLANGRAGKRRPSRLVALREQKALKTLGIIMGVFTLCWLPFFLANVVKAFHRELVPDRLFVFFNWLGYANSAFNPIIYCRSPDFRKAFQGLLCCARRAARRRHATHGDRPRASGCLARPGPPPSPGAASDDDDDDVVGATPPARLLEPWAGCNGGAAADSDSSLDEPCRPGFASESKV

[24] = biological target: receptors (Bioprint panel) (Rattus norvegicus, UniProt P35439); conditions: read-out: % Inhibition of Control Specific Binding
[25] = biological target: receptors (Bioprint panel) (Homo sapiens, UniProt P43116); conditions: PROSTANOID EP2 (h) (agonist radioligand); 10 μM; read-out: % Inhibition of Control Specific Binding
Chain of receptors (Bioprint panel) (Homo sapiens, UniProt P43116) (P43116 whole entry): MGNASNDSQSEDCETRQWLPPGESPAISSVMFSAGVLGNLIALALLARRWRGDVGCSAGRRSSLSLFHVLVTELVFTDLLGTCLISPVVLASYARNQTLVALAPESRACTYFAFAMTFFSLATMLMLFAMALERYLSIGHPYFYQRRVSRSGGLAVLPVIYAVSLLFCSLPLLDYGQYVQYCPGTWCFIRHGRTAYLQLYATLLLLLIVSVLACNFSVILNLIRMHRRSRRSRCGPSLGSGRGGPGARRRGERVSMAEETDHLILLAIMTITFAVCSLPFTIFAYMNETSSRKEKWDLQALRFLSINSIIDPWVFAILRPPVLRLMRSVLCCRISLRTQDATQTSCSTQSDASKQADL

For `CC(C)=CCC[C@H](CO)[C@@H]1CC[C@@H](C)c2c1cc(C)c(O)c2O` [Compound 1, 7,8,18-trihydroxyserrulat-14-ene], the inhibition at 10 µM [1] was -17%, the inhibition at 10 µM [2] was 40% and the inhibition at 10 µM [3] was -3%. The inhibition at 10 µM [4] was 70%, the inhibition at 10 µM [5] was 54% and the inhibition at 10 µM [6] was 37%. It also gave an inhibition at 10 µM [7] of 10%, an inhibition at 10 µM [8] of 62% and an inhibition at 10 µM [9] of -36%. The inhibition at 10 µM [10] was 43%, the inhibition at 10 µM [11] was 42% and the inhibition at 10 µM [12] was 1%. For the same compound, the inhibition at 10 µM [13] was 48%, the “% Inhibition of Control Specific Binding” value [14] was −9% and the inhibition at 10 µM [15] was -3%. For the same compound, the inhibition at 10 µM [16] was 46%, the inhibition at 10 µM [17] was 1% and the inhibition at 10 µM [18] was 23%. The inhibition at 10 µM [19] was 56%, the inhibition at 10 µM [20] was 29% and the inhibition at 10 µM [21] was -5%. The inhibition at 10 µM [22] was 18%, the inhibition at 10 µM [23] was 19% and the inhibition at 10 µM [24] was 4%. For the same compound, the inhibition at 10 µM [25] was 53%.
